Laboratory results from PMC5761724 (Journal of medicinal chemistry, 2017).
Blank lines part the entries; values can stand above or below the compound they belong to.

What was measured:
Rpn11 = Rpn11 (Homo sapiens, UniProt O00487); test: Rpn11 fluorescence polarization deubiquitination assay; format: biochemical
Cytotoxicity assay = format: cell-based; conditions: human, HCT 116 cells
BRISC complex = BRISC complex (Homo sapiens, UniProt P46736); test: BRISC activity assay; format: biochemical; conditions: Figure S1
[1] = system: Ub^G76V-GFP Hela cells (proteasome activity); test: Ub^G76V-GFP degradation assay; format: cell-based; conditions: Homo sapiens, read-out: Ub^G76VGFP Hela Cell IC50
AMSH = target: T1, AMSH (Homo sapiens, UniProt O95630); test: AMSH activity assay; format: biochemical
T1 sequence (O95630 1-424): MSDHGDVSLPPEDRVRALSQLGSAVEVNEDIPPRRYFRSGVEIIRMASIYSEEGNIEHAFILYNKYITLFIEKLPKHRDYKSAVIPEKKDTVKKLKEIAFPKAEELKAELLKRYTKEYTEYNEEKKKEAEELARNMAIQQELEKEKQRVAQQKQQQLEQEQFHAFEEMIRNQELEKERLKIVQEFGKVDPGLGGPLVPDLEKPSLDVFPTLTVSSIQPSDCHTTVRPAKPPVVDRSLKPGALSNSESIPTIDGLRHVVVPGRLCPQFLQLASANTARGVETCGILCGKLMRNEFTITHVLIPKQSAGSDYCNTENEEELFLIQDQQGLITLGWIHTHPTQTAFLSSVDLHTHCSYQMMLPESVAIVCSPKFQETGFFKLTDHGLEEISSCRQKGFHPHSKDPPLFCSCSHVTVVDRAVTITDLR

Csn5 = Csn5 (Homo sapiens, UniProt Q92905); test: CSN5 activity assay; format: biochemical
[2] = HCT 116 Cytotoxicity IC50, Table 2

fold weaker Rpn11 activity compared to 8TQ (Rpn11): ~ 6 fold
SMILES: Sc1ccnc2cccnc12 [Compound 8e, 1,5-Naphthyridine-4-thiol]

SMILES: CSc1cccc2cccnc12 [Compound 6, 8-(Methylthio)quinoline]
IC50 at 72 h (Cytotoxicity assay; HCT 116 Cytotoxicity, Table 1): > 100 µM

SMILES: Sc1cccc2ccccc12 [Compound 2]
IC50 at 72 h (Cytotoxicity assay; HCT 116 Cytotoxicity, Table 1): > 100 µM

inhibition of Rpn11 in MBP library screen (Rpn11; fragment concentration of 200 μM): essentially complete inhibition
ligand efficiency (Rpn11; from Rpn11 IC50): 0.69
inhibition of BRISC (BRISC complex): significant inhibition
SMILES: Sc1cccc2cccnc12 [8TQ, 8-thioquinoline]
IC50 at 72 h (Cytotoxicity assay; HCT 116 Cytotoxicity, Table 1): 1.3 µM

IC50 [1]: > 100 µM
SMILES: O=C(NCCc1nccs1)c1cnc2c(O)cccc2c1 [Compound 47, 8-Hydroxy-N-(2-(thiazol-2-yl)ethyl)quinoline-3-carboxamide]

SMILES: Cc1ccc2cccc(S)c2n1 [Compound 9c, 2-Methylquinoline-8-thiol]
IC50 at 72 h (Cytotoxicity assay; [2]): > 50 µM

IC50 [1]: > 100 µM
IC50 (Rpn11; Rpn11 IC50): ~82 µM
IC50 (Rpn11; Rpn11 IC50, Table 5, control compounds): 82 ± 14 µM
IC50 (AMSH): > 100 µM
IC50 (Csn5): > 100 µM
SMILES: O=C(NCCc1nccs1)c1cnc2c(S)ccnc2c1 [Compound 50f, 8-Mercapto-N-(2-(thiazol-2-yl)ethyl)-1,5-naphthyridine-3-carboxamide]

SMILES: Cc1ccnc2c(S)cccc12 [Compound 11c, 4-Methylquinoline-8-thiol]
IC50 at 72 h (Cytotoxicity assay; [2]): > 10 µM

SMILES: Cc1cccc2cccnc12 [Compound 3]
IC50 at 72 h (Cytotoxicity assay; HCT 116 Cytotoxicity, Table 1): > 100 µM

IC50 [1]: > 100 µM
SMILES: CSc1cccc2cc(C(=O)NCCc3nccs3)cnc12 [Compound 48, 8-(Methylthio)-N-(2-(thiazol-2-yl)ethyl)quinoline-3-carboxamide]

SMILES: Sc1cccc2ncccc12 [Compound 7c, Quinoline-5-thiol]
IC50 at 72 h (Cytotoxicity assay; HCT 116 Cytotoxicity, Table 1): > 100 µM
